From US10519169B2, “3-(1H-pyrrolo[2,3-C]pyridin-2-yl)-1 H-pyrazolo[4,3-B]pyridines and therapeutic uses thereof” (Samumed, LLC, priority 2015, dated 2019)
Values belong to the compound of their own block, whether it stands above or below them.

What was measured:
Format in all cases: cell-based
[1] = test system: primary human fibroblasts derived from IPF patients (LL29 cells) treated with TGF-β1; assay: Inhibition of fibrotic process, αSMA staining in TGF-β1 treated LL29 fibroblasts; conditions: Fibroblast; for EC50: 96 h, TGF-β1 20 ng/mL, 4 days, % cells positive for αSMA
From the text: Representative compounds were screened using primary human fibroblasts (derived from IPF patients) treated with TGF-β1 to determine their ability to inhibit the fibrotic process.
Primary human fibroblasts derived from IPF patients (LL29 cells) [^1Xiaoqiu Liu, et. al., “Fibrotic Lung Fibroblasts Show Blunted Inhibition by cAMP Due to Deficient cAMP Response Element-Binding Protein Phosphorylation”, Journal of Pharmacology and Experimental Therapeutics (2005), 315(2), 678-687; ^2Watts, K. L., et. al., “RhoA signaling modulates cyclin D1 expression in human lung fibroblasts; implications for idiopathic pulmonary fibrosis”, Respiratory Research (2006), 7(1), 88] were obtained from American Type Culture Collection (ATCC) and expanded in F12 medium supplemented with 15% Fetal Bovine Serum and Penicillin/Streptomycin.
Each compound was dissolved in DMSO as a 10 mM stock and used to prepare compound source plates. Serial dilution (1:2, 11-point dose-response curves from […] to […]) and compound transfer was performed using the ECHO 550 (Labcyte, Sunnyvale, Calif.) into 384-well clear bottom assay plates (Greiner Bio-One) with appropriate DMSO backfill for a final DMSO concentration of 0.1%. LL29 cells are plated at 1,500 cells/well in 80 μL/well F12 medium supplemented with 1% Fetal Bovine Serum. One hour after addition of the cells, TGF-β1 (Peprotech; 20 ng/mL) was added to the plates to induce fibrosis (ref. 1 and 2 above). Wells treated with TGF-β1 and containing DMSO were used as controls. Cells were incubated at 37° C. and 5% CO2 for 4 days. Following incubation for 4 days, SYTOX green nucleic acid stain (Life Technologies [Thermo Fisher Scientific]) was added to the wells at a final concentration of 1 μM and incubated at room temperature for 30 min. Cells were then fixed using 4% formaldehyde (Electron Microscopy Sciences), washed 3 times with PBS followed by blocking and permeabilization using 3% Bovine Serum Albumin (BSA; Sigma) and 0.3% Triton X-100 (Sigma) in PBS. Cells were then stained with antibody specific to α-smooth muscle actin (aSMA; Abcam) (ref. 1 and 2 above) in 3% Bovine Serum Albumin (BSA; Sigma) and 0.3% Triton X-100 (Sigma) in PBS, and incubated overnight at 4° C. Cells were then washed 3 times with PBS, followed by incubation with Alexa Flor-647 conjugated secondary antibody (Life Technologies [Thermo Fisher Scientific]) and DAPI at room temperature for 1 hour. Cells were then washed 3 times with PBS and plates were sealed for imaging. aSMA staining was imaged by excitation at 630 nm and emission at 665 nm and quantified using the Compartmental Analysis program on the CellInsight CX5 (Thermo Scientific). Dead or apoptotic cells were excluded from analysis based on positive SYTOX green staining. % of total cells positive for aSMA were counted in each well and normalized to the average of 11 wells treated with TGF-β1 on the same plate using Dotmatics' Studies Software. The normalized averages (fold change over untreated) of 3 replicate wells for each compound concentration were used to create dose-responses curves and EC50 values were calculated using non-linear regression curve fit in the Dotmatics' Studies Software. For EC50 of >10 μM, the percent inhibition at 10 μM is provided.

[2] = test system: Wnt activity (Sp5-Luc reporter, TCF/LEF binding sites) in SW480 colon carcinoma cells; assay: Wnt activity screening assay, Sp5-Luc reporter gene in SW480 cells; conditions: Homo sapiens, overnight incubation
From the text: The screening assay for Wnt activity is described as follows. Reporter cell lines can be generated by stably transducing cancer cell lines (e.g., colon cancer) or primary cells (e.g., IEC-6 intestinal cells) with a lentiviral construct that includes a Wnt-responsive promoter driving expression of the firefly luciferase gene.
SW480 colon carcinoma cells were transduced with a lentiviral vector expressing luciferase with a human Sp5 promoter consisting of a sequence of eight TCF/LEF binding sites. SW480 cells stably expressing the Sp5-Luc reporter gene and a hygromycin resistance gene were selected by treatment with 150 μg/mL of hygromycin for 7 days. These stably transduced SW480 cells were expanded in cell culture and used for all further screening activities. Each compound was dissolved in DMSO as a 10 mM stock and used to prepare compound source plates. Serial dilution (1:3, 10-point dose-response curves starting from 10 μM) and compound transfer was performed using the ECHO 550 (Labcyte, Sunnyvale, Calif.) into 384-well white solid bottom assay plates (Greiner Bio-One) with appropriate DMSO backfill for a final DMSO concentration of 0.1%. For Sp5-Luc reporter gene assays, the cells were plated at 4,000 cells/well in 384-well plates with medium containing 1% fetal bovine serum and incubated overnight at 37° C. and 5% CO2. Following incubation, 20 μl of BrightGlo luminescence reagent (Promega) was added to each well of the 384-well assay plates. The plates were placed on an orbital shaker for 2 min and then luminescence was quantified using the Envision (Perkin Elmer) plate reader. Readings were normalized to DMSO only treated cells, and normalized activities were utilized for EC50 calculations using the dose-response log (inhibitor) vs. response-variable slope (four parameters) nonlinear regression feature available in GraphPad Prism 5.0 (or Dotmatics). For EC50 of >10 μM, the percent inhibition at 10 μM is provided.

SW480 colon cancer cells = assay: Cell viability assay (CellTiter-Blue), SW480 cells; conditions: Homo sapiens, 96 h, four days, CellTiter-Blue
Protocol: Representative compounds were screened using the following assay procedure to assess the effect on cell viability as described below.
Each compound was dissolved in DMSO as a 10 mM stock and used to prepare compound source plates. Serial dilution (1:3, 8-point dose-response curves from […]) and compound transfer was performed using the ECHO 550 (Labcyte, Sunnyvale, Calif.) into 96-well clear bottom, black-walled plates (Corning-Costar).
Approximately 2×10^3 SW480 colon cancer cells were seeded into each well and allowed to incubate in the presence or absence of compound for four days at 37° C./5% CO2. Eight replicates of DMSO-treated cells served as controls and cells treated with compound were performed in duplicate.
After incubation, 20 μL of CellTiter-Blue (Promega) was added to each well allowed to incubate for approximately 3 hours. This reagent was a buffered solution which contains resazurin, metabolically active cells were able to reduce rezarurin (blue) into resorufin (pink) which was highly fluorescent. This measured fluorescence was used as a readout for cell viability.
After incubation, the plates were read at Ex 560 nm Em 590 nm (Cytation 3, BioTek). Dose-response curves were generated and EC50 concentration values were calculated using non-linear regression curve fit in the GraphPad Prism (San Diego, Calif.) or Dotmatics' Studies Software (Bishops Stortford, UK). For EC50 of >10 μM, the percent inhibition at 10 μM is provided.

IL-6 = IL-6 inhibition in LPS-stimulated THP-1 cells (HTRF); conditions: Homo sapiens; for EC50: LPS 500 ng/mL, 22 hours, IL6 HTRF
Protocol: Human monocyte cell line (THP-1 cells; Catalog # TIB-202, ATCC, Manassas, Va.) were cultured in Roswell Park Memorial Institute (RPMI) 1640 Medium (Catalog #21870-100, Buffalo, N.Y.) with 1% L-glutamine, 1% HEPES, 1% Sodium Pyruvate, 2% Sodium Bicarbonate supplemented with 100 units/mL penicillin, 50 μg/mL streptomycin, 2-mercaptoethanol (0.05 mM) [basal medium] and 10% fetal bovine serum (Catalog #16140089, Life Technologies, Carlsbad, Calif.) at 37° C. and 5% CO2.
THP-1 cells were cultured in basal media with 1% FBS for 24 hours before the start of the assay. Each compound was dissolved in DMSO as a 10 mM stock and used to prepare compound source plates. Serial dilution (1:3, 10-point dose-response curves starting from 10 μM) and compound transfer was performed using the ECHO 550 (Labcyte, Sunnyvale, Calif.) into 384-well white low volume assay plates (Greiner Bio-One) with appropriate DMSO backfill for a final DMSO concentration of 0.1%. THP-1 cells were plated at 5000 cells/well in the 384-well plates and incubated at 37° C. for 2 h. 500 ng/mL of LPS was added after 2 hours and cells were incubated for another 22 hours at 37° C. Plates were spun in a centrifuge for 1 minute at […] and a mixture of anti-IL6 XL665, and anti-IL6 Cryptate diluted in reconstitution buffer (Cisbio Inc.) was added to each well. Following incubation for 3 hrs at room temperature, Homogeneous Time-Resolved Fluorescence (HTRF) was measured using the Envision (Perkin Elmer) at 665 nm and […]. The ratio of fluorescence at 665 nm to 620 nm was used as a readout for IL6 quantification. All samples were processed in duplicate. Readings were normalized to DMSO treated cells and normalized activities were utilized for EC50 calculations using the dose-response log (inhibitor) vs. response-variable slope (four parameters) nonlinear regression feature available in GraphPad Prism 5.0 (or Dotmatics). For EC50 of >10 μM, the percent inhibition at […] is provided.

SMILES: Cc1ccncc1-c1ccc2[nH]nc(-c3cc4c(-c5cccs5)cncc4[nH]3)c2n1 [Compound 341, 5-(4-Methylpyridin-3-yl)-3-(4-(thiophen-2-yl)-1H-pyrrolo[2,3-c]pyridin-2-yl)-1H-pyrazolo[4,3-b]pyridine]
EC50 [1]: 521 nM | EC50 [2]: 4070 nM | EC50 (SW480 colon cancer cells): 4250 nM | EC50 (IL-6): 118 nM

SMILES: c1ncc(-c2ccc3[nH]nc(-c4cc5c(N6CCCCC6)cncc5[nH]4)c3n2)cc1OC1CCCCC1 [Compound 607, 5-(5-(Cyclohexyloxy)pyridin-3-yl)-3-(4-(piperidin-1-yl)-1H-pyrrolo[2,3-c]pyridin-2-yl)-1H-pyrazolo[4,3-b]pyridine]
EC50 [1]: 199 nM | EC50 [2]: 3350 nM | EC50 (SW480 colon cancer cells): 498 nM | EC50 (IL-6): 2360 nM

SMILES: CN(C)CCOc1cncc(-c2ccc3[nH]nc(-c4cc5ccncc5[nH]4)c3n2)c1 [Compound 659, 2-((5-(3-(1H-Pyrrolo[2,3-c]pyridin-2-yl)-1H-pyrazolo[4,3-b]pyridin-5-yl)pyridin-3-yl)oxy)-N,N-dimethylethan-1-amine]
EC50 [1]: 4130 nM | EC50 [2]: 3350 nM | EC50 (SW480 colon cancer cells): 1480 nM | EC50 (IL-6): 1490 nM

Now those with a lower EC50 [2], led by results:

EC50 [2]: 2230 nM | EC50 (SW480 colon cancer cells): 1080 nM | EC50 (IL-6): 5800 nM
SMILES: c1csc(-c2cncc3[nH]c(-c4n[nH]c5ccc(-c6ccncc6)nc45)cc23)c1 [Compound 354, 5-(Pyridin-4-yl)-3-(4-(thiophen-2-yl)-1H-pyrrolo[2,3-c]pyridin-2-yl)-1H-pyrazolo[4,3-b]pyridine]
EC50 [1]: 1180 nM

EC50 [2]: 2110 nM | EC50 (SW480 colon cancer cells): 3090 nM | EC50 (IL-6): 1760 nM
SMILES: CS(=O)(=O)NCc1cc(F)cc(-c2cncc3[nH]c(-c4n[nH]c5ccc(-c6cncc(CN7CCC(F)(F)C7)c6)nc45)cc23)c1 [Compound 502, N-(3-(2-(5-(5-((3,3-Difluoropyrrolidin-1-yl)methyl)pyridin-3-yl)-1H-pyrazolo[4,3-b]pyridin-3-yl)-1H-pyrrolo[2,3-c]pyridin-4-yl)-5-fluorobenzyl)methanesulfonamide]
EC50 [1]: > 10000 nM | inhibition at 10 µM ([1]; given for EC50 >10 μM, TGF-β1, αSMA, 10 μM, read-out: percent inhibition at 10 μM): 25.4%

EC50 [2]: 1280 nM | EC50 (SW480 colon cancer cells): 1120 nM | EC50 (IL-6): > 10000 nM
SMILES: Fc1cccc(-c2cncc3[nH]c(-c4n[nH]c5ccc(-c6cncc(OCc7ccccc7)c6)nc45)cc23)c1 [Compound 518, 5-(5-(Benzyloxy)pyridin-3-yl)-3-(4-(3-fluorophenyl)-1H-pyrrolo[2,3-c]pyridin-2-yl)-1H-pyrazolo[4,3-b]pyridine]
EC50 [1]: 1200 nM | inhibition at 10 µM (IL-6; given for EC50 >10 μM, LPS, IL6, at 10 M [sic], read-out: percent inhibition at 10 M): 35.5%
